Assays:
TEAD2 = TEAD2 (Homo sapiens, UniProt Q15562); assay: Thermal shift assay TEAD2; assay type: binding
In short: (§1)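 Protein melt reactions contained TEAD1 (0.2 mg/ml final) or TEAD2 (0.08 mg/ml final) plus compound at 1 or 10 μM in 0.1% DMSO. Thermal unfolding was followed by dye fluorescence on a qPCR instrument.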

TEAD3 = TEAD3 (Homo sapiens, UniProt Q99594); assay: Thermal shift assay TEAD3; assay type: binding
In short: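 Compounds at 1 or 10 μM (0.1% DMSO, PBS dilution) mixed with 0.1 mg/ml final TEAD3 and thermal shift dye, then run through a qPCR melt to follow protein unfolding.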

[1] = Body weight change in NCI-H226 xenograft study; assay type: in vivo, BALB/c Nude mice; settings: QD, oral, day 21 compared to day 1
Protocol: (§2) Example D: In Vivo Pharmacodynamic and Efficacy Study
(§3) The objective of the research is to evaluate the in vivo anti-tumor efficacy of Example 58b, 64, 75a in human lung cancer NCI-H226 xenograft model in BALB/c Nude mice. (Jiangsu GemPharmatech Co., Ltd, female, 6-9 weeks)
(§4) The NCI-H226 cancer cells was maintained in vitro with RPMI1640 medium supplemented with 10% fetal bovine serum at 37° C. in an atmosphere of 5% CO2 in the air. The cells in exponential growth phase will be harvested and quantitated by cell counter before tumor inoculation. Each mouse was inoculated subcutaneously it the right front flank region with NCI-H226 tumor cells (lx 107) in 0.2 ml of PBS mixed with Matrigel (1:1) for tumor development. Animals were randomized when the average tumor volume reached 150-200 mm^3. The test article was administered to the mice orally once a day from the day of grouping, total 21 days (QD×21 Days). Body weight change of animals was monitored regularly as an indicator of drug safety. The major endpoint was to see if the tumor growth could be delayed or mice could be cured. Tumor sizes were measured two times per week in two dimensions using a caliper, and the volume were expressed in mm^3 using the formula: V=0.5a×b^2 where a and b are the long and short diameters of the tumor, respectively.
(§5) The tumor volume were then used for the calculations of TGI. TGI is calculated for each group using the formula: TGI (%)=[1−(Ti−T0)/(Ci−C0)]×100; Ti is the average tumor volume of a treatment group on a given day, T0 is the average tumor volume of the treatment group on the first day of treatment, Ci is the average tumor volume of the vehicle control group on the same day with Ti, and C0 is the average tumor volume of the vehicle group on the first day of treatment. To compare tumor volumes of different groups at a pre-specified day, Bartlett's test was used to check the assumption of homogeneity of variance across all groups.

TEAD1 = TEAD1 (Homo sapiens, UniProt P28347); assay: Thermal shift assay TEAD1; assay type: binding
TEAD1, sequence (P28347 whole entry, species assumed): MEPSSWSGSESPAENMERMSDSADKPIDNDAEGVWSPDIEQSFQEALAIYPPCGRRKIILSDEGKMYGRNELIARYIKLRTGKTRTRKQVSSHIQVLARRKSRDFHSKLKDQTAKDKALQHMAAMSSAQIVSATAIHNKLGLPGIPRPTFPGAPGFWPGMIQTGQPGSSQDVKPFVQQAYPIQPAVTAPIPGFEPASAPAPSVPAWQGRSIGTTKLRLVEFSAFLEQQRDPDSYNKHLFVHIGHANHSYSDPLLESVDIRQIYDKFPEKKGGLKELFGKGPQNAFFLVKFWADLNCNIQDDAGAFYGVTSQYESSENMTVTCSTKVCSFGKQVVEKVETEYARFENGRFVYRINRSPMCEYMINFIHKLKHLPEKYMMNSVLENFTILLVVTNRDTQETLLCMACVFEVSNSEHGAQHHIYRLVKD
In short: as §1

[2] = test system: human lung cancer NCI-H226 xenograft; assay: In vivo anti-tumor efficacy, NCI-H226 xenograft model (TGI); set-up: species or system BALB/c Nude mice; settings: QD, oral, tumor volume at day 21
Protocol: as §2, §3, §4, §5

[3] = Pharmacokinetic profile evaluation in mice; assay type: in vivo, CD-1 mice; settings: CD-1; mouse, oral administration at 10 mg/kg, plasma
Protocol: Example C: Pharmacokinetic Profile Evaluation
Three CD-1 mice of SPF. (Sino-British SIPPR/BK Lab Animal Ltd, Shanghai.) were intravenously administrated with given compounds (Formulation: 5% DMSO+10% Solutol+85% Saline) or orally gavage administrated with given compounds (Formulation: 5% DMSO+10% Solutol+85% Saline). The blood samples were taken via cephalic vein at timepoints 0.083 h, 0.25 h, 0.5 h, 1 h, 2 h, 4 h, 8 h, and 24 h after intravenous (iv) administration or at timepoints 0.25 h, 0.5 h, 1 h, 2 h, 4 h, 6 h, 8 h, and 24 h after oral gavage administration, 30 μL/time point. Blood samples were placed in tubes containing K2-EDTA and stored on ice until centrifuged. The blood samples were centrifuged at 6800 g for 6 minutes at 2-8° C. within 1 h after collected and stored frozen at approximately −80° C. An aliquot of 20 μL plasma samples were protein precipitated with 400 μL MeOH in which contains 100 ng/mL Verapamil (IS). The mixture was vortexed for 1 min and centrifuged at 18000 g for 10 min. Transfer 400 μL supernatant to 96 well plates. An aliquot of 5 μL supernatant was injected for LC-MS/MS analysis by LC-MS/MS-27 (TQ6500+) instrument. The analytical results were confirmed using quality control samples for intra-assay variation. The accuracy of >66.7% of the quality control samples should be between 80-120% of the known value(s). Standard set of parameters including Area Under the Curve (AUC(0-t)), maximum plasma concentration (Cmax), elimination half-life (T1/2) will be calculated using noncompartmental analysis modules in FDA certified pharmacokinetic program Phoenix WinNonlin 7.0 (Pharsight, USA).

TEAD4 = TEAD4 (Homo sapiens, UniProt Q15561); assay: Thermal shift assay TEAD4; assay type: binding
TEAD4, sequence (Q15561 whole entry, species assumed): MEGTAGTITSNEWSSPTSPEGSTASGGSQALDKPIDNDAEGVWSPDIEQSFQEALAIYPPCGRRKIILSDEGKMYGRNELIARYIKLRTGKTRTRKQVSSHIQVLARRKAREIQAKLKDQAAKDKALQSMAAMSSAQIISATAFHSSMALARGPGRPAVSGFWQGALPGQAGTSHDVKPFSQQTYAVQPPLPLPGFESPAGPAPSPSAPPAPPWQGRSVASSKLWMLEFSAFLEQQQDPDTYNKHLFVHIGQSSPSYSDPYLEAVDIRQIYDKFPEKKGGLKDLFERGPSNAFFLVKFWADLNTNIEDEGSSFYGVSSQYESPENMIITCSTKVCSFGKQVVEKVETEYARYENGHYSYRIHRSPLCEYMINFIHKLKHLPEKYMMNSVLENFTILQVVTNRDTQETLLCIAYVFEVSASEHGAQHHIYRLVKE
In short: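 Compounds tested at 1 and 10 μM (0.1% DMSO, PBS) against TEAD4 protein at 0.1 mg/ml final. Melting followed by thermal shift dye fluorescence during a qPCR instrument ramp.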

NCI-H226 cells = assay: Cell growth assay (CellTiter-Glo); assay type: cell-based, human; settings: Homo sapiens, NCI-H226, 168 h, 7 days treatment, CellTiter-Glo luminescence, read-out: H226 CTG IC50

TEAD2, sequence (Q15562 whole entry, species assumed): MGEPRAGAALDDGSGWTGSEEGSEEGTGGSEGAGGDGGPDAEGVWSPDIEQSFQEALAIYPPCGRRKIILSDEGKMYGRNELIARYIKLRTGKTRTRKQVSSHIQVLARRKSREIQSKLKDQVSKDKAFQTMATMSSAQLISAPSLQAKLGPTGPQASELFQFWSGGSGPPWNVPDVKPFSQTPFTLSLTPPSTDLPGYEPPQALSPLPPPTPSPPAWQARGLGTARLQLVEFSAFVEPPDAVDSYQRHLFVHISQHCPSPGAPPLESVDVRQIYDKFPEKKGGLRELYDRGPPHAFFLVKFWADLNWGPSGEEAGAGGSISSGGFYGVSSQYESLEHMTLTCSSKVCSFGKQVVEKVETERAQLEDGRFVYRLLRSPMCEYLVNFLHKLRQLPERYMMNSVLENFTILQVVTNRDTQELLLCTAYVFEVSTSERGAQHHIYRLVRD
TEAD3, sequence (Q99594 whole entry, species assumed): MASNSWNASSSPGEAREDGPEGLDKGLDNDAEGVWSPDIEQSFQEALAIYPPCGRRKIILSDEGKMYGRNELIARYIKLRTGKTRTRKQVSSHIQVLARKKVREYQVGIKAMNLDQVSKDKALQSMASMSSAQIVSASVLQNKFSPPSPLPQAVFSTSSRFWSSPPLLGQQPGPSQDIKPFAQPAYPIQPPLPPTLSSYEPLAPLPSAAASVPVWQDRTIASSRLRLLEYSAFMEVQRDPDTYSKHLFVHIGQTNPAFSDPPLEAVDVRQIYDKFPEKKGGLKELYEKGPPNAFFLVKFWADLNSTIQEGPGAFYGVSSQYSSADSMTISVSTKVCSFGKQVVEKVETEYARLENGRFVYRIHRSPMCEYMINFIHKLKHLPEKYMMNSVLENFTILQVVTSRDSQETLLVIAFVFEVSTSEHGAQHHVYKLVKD

Row | SMILES | TEAD2 ΔTm (TEAD2) | TEAD3 ΔTm (TEAD3) | Body weight change ([1]; 1 mg/kg) | Body weight change ([1]; 3 mg/kg) | Body weight change ([1]; 10 mg/kg) | Body weight change ([1]; 30 mg/kg) | TEAD1 ΔTm (TEAD1) | TGI ([2]; 1 mg/kg) | TGI ([2]; 3 mg/kg) | TGI ([2]; 10 mg/kg) | TGI ([2]; 30 mg/kg) | AUC(0-t) [3] | Cmax [3] | half-life [3] | TEAD4 ΔTm (TEAD4) | IC50 (NCI-H226 cells) | Body weight change ([1]; 60 mg/kg) | TGI ([2]; 60 mg/kg)
1 | Cn1cc2cc(Oc3ccc(C(F)(F)F)cc3)cc([C@H]3C[C@@H]3C(=O)N3CC(O)C3)c2n1 (single isomer, unassigned) [Example 58b] | 12.9 °C | 10.9 °C | +8.2% | +4.0% | +1.6% | +2.9% | 9.2 °C | 95% | 103% | 128% | 145% | 17200 ng·h/mL | 1710 ng/mL | 216 min | 11.3 °C | < 100 nM |  | 
2 | Cn1cc2cc(Oc3ccc(C(F)(F)F)cc3)cc([C@@H]3C[C@H]3C(=O)N3CC[C@H](O)[C@@H](O)C3)c2n1 (single isomer, unassigned) [Example 75a] | 12.2 °C | 10.0 °C |  | +6.7% | +3.0% | +4.0% | 9.0 °C |  | 90% | 119% | 150% | 10700 ng·h/mL | 1650 ng/mL | 138 min | 11.3 °C | < 100 nM | +1.5% | 149%
3 | CNS(=O)(=O)CCc1cc(-c2ccc(C(F)(F)F)cc2)cc2cn(C)nc12 [Example 44] | 7.6 °C | 3.0 °C |  |  |  |  | 9.1 °C |  |  |  |  | 16100 ng·h/mL | 2470 ng/mL | 156 min | 10 °C | < 100 nM |  | 
4 | CNS(=O)(=O)CCc1cc(Oc2ccc(C(F)(F)F)cc2)cc2cn(C)nc12 [Example 45] | 10.3 °C | 4 °C |  |  |  |  | 9.3 °C |  |  |  |  | 11500 ng·h/mL | 3100 ng/mL | 132 min | 10.6 °C | 100 to 500 nM |  | 
